ChEMBL document CHEMBL1158743, “Tenellones A and B from a Diaporthe sp.: two highly substituted benzophenone inhibitors of parasite cGMP-dependent protein kinase activity” (J Nat Prod, 2005)
pIC50: −log10 of the molar value. Converted amounts (≈) assume the structure as drawn. The source made the active and inactive calls. No cut-off for these calls is given here.

Experiments:
Eimeria tenella = assay: Antiparasitic activity against Eimera tenella infected in chickens given ad libitum at 100 ppm fed with diet; format: functional, organism-based
[1] = target: cGMP-dependent protein kinase (Eimeria tenella, UniProt Q8MMZ8); assay: Inhibition of Eimera tenella CGMP-dependent protein kinase by radiometric assay
Sequence of cGMP-dependent protein kinase (Q8MMZ8 whole entry): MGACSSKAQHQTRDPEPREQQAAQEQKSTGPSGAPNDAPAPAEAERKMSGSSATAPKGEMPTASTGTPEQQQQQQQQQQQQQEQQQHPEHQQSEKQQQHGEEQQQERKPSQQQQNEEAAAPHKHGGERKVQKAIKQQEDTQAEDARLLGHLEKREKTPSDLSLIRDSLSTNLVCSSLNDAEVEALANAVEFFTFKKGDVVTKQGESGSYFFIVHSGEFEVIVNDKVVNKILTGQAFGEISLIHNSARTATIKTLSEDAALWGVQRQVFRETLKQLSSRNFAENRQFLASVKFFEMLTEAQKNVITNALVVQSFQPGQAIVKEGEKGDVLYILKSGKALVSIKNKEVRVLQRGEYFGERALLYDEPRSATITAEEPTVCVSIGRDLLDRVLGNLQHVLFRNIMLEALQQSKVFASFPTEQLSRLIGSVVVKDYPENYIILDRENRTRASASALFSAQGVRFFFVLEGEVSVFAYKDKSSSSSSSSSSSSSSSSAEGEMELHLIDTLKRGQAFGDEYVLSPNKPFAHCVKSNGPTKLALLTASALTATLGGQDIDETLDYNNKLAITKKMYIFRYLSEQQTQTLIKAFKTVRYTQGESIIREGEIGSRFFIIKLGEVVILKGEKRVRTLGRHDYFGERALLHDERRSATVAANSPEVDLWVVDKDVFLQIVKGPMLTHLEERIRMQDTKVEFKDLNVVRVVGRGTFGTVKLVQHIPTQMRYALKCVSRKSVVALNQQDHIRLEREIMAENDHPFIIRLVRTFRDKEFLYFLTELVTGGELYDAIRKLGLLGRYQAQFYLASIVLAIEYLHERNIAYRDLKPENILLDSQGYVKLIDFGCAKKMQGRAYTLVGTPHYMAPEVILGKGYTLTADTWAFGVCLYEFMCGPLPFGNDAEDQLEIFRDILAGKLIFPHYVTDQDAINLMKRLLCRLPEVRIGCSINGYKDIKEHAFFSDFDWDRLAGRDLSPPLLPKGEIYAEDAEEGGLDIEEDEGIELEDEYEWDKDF

Gallus gallus = species on record: Gallus gallus; assay: Toxicity to Eimera tenella infected chickens given ad libitum at 100 ppm; format: organism-based; conditions: chicken, in vivo, po
Toxoplasma gondii = assay: Antiparasitic activity against Toxoplasma gondii infected in human foreskin fibroblasts assessed as beta-galactosidase activity after 5 days by whole cell assay; format: functional, organism-based; conditions: 120 h
Enterococcus faecium = assay: Antibacterial activity against Enterococcus faecium; format: functional
Staphylococcus aureus = assay: Antibacterial activity against Staphylococcus aureus; format: functional

pIC50 [1]	SMILES	Activity (Eimeria tenella)	Activity (Gallus gallus)	pIC50 (Toxoplasma gondii)	MIC (Enterococcus faecium)	MIC (Staphylococcus aureus)
5.06	CC(C)=CCc1ccc(O)c(C=O)c1C(=O)c1cc(C)cc2c1OC(C(C)(C)O)CO2 (stereo not given) [TENELLONE B]	inactive	Non-toxic			
4.90	CC(C)=CCc1ccc(O)c(C=O)c1C(=O)c1cc(C)cc(OCC(O)C(C)(C)O)c1O (stereo not given) [TENELLONE A]	inactive	Non-toxic	5.74		
> 9.00	CN1CCC(c2cc(-c3ccncc3)c(-c3ccc(F)cc3)[nH]2)CC1					
	COc1c(Cl)c(C)c(Cl)c(O)c1C(=O)c1c(C=O)c(O)cc(O)c1CC=C(C)C [PESTALONE]				0.078 µg/mL (≈ 0.178 µM)	0.037 µg/mL (≈ 0.0842 µM)
